Literature values, collected in patent US20120088773A1, “Circadian rhythm modulation” (priority 2010, published 2012).
One block for each compound: values may come before it.

How the values were obtained:
[1] = tested on: D2 dopamine-mediated rotational behavior; settings: prior administration, dopamine-depleted rats
dopamine D(2) receptor = settings: 200 mg oral caffeine compared to oral placebo
[2] = according to the CDC

water solubility: very water soluble
Structure (SMILES): CC(=O)N[C@@H](Cc1ccc(O)cc1)C(=O)O [N-acetyl-L-tyrosine]

ventral striatal [(11)C]raclopride binding potential (dopamine D(2) receptor): trend-level increase
decrease in midline thalamic binding potential (dopamine D(2) receptor; p<0.001): 12%
Structure (SMILES): Cn1c(=O)c2c(ncn2C)n(C)c1=O [caffeine]
D2 dopamine-mediated rotational behavior [1]: can sensitize D2 dopamine-mediated rotational behavior

Structure (SMILES): C=C1CC[C@H](O)C/C1=C/C=C1\CCC[C@]2(C)[C@@H]([C@H](C)CCCC(C)C)CC[C@@H]12 [vitamin D3, cholecalciferol]
half-life [2]: 24 to 48 h
